Tested on: Hypoxia response element (HRE)-luciferase reporter HeLa-HRE cells
Assay: HRE-luciferase reporter assay in HeLa-HRE cells
Assay type: cell-based, Human
Conditions: different concentrations and times
Procedure: Luciferase assay. Assay was performed as described. Briefly, cells (HeLa and U2OS) stably expressing an HRE-luciferase reporter were treated for the indicated times with compounds. Cells were harvested in passive lysis buffer (Promega) and subjected to three freeze-thaw cycles. The soluble lysate fraction was used for assays, performed according to the manufacturer’s instructions (Promega) using a Berthold Lumat LB 9507 Luminometer. Results were normalized for protein concentration, and reported as mean ± s.e.m. from three biological replicates.

SMILES: Cc1ncsc1-c1ccc(CNC(=O)[C@@H]2C[C@@H](O)CN2C(=O)[C@@H](NC(=O)COCCOCCOCCOCCOCCOCC(=O)N[C@H](C(=O)N2C[C@H](O)C[C@H]2C(=O)NCc2ccc(-c3scnc3C)cc2)C(C)(C)C)C(C)(C)C)cc1 [CM11, N ^1 ,N ^20-bis((S)-1-((2S,4R)-4-hydroxy-2-((4-(4-methylthiazol-5-yl)benzyl)carbamoyl)pyrrolidin-1-yl)-3,3-dimethyl-1-oxobutan-2-yl)-3,6,9,12,15,18-hexaoxaicosanediamide]
- luciferase activity relative to DMSO control: no increase

From PMC5635026, “Homo-PROTACs: bivalent small-molecule dimerizers of the VHL E3 ubiquitin ligase to induce self-degradation” (Nature Communications, 2017)
